Data taken from US20210330611A1, “THERAPY FOR NEUROLOGICAL DISEASES/DISORDERS” (priority 2020, published 2021).
Like-named read-outs stand apart in the source and are kept apart here.

Key:
primary rat microglia [1] = system: primary rat microglia;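 on Fibrin % cell toxicity: share of dead cells sized under 150 µm2 at 10 µM in fibrin-stimulated microglia HTS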
[2] = system: fibrin- and LPS-induced microglia activation; experiment: cells; assay type: cell-based, rat
[3] = system: LPS-induced microglia activation; experiment: Image-based assay of LPS-induced microglia activation (HTS and dose response); assay type: cell-based, rat
[4] = system: fibrin-induced microglia activation; experiment: Image-based assay of fibrin-induced microglia activation (HTS and dose response); assay type: cell-based, rat; settings: for inhibition at 10 µM: Rattus norvegicus, Microglia, read-out: Fibrin % inhibition
primary rat microglia [5] = system: primary rat microglia; remark: listed apart in the source;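 on Fibrin % cell toxicity: share of dead cells sized under 150 µm2 at 10 µM in fibrin-stimulated microglia HTS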
[6] = classification by fibrin and LPS inhibition in HTS
[7] = Rattus norvegicus, Microglia, 48 h; read-out: LPS % inhibition
[8] = primary microglia HTS, fibrin stimulation, cell size >800 μm2 as marker of activation
[9] = Rattus norvegicus, Microglia, 48 h, read-out: LPS % inhibition

Row | Compound | Fibrin % cell toxicity (primary rat microglia [1]; rat) | Quadrant (FIG. 5b) [2, 6] | inhibition at 10 µM [3, 7] | inhibition at 10 µM [4, 8] | LPS % cell toxicity (primary rat microglia [5]; rat) | Quadrant (FIG. 5b) [2] | inhibition at 10 µM [3, 9] | inhibition at 10 µM [4] | other results
1 | Fc1ccc([C@@H]2CCNC[C@H]2COc2ccc3c(c2)OCO3)cc1 [Paroxetine] | 1% | Q4 | 15% | 38% | 0% | – | – | – | –
2 | Nc1nc2[nH]cc(CCc3ccc(C(=O)N[C@@H](CCC(=O)O)C(=O)O)cc3)c2c(=O)[nH]1 [Pemetrexed] | 0% | Q4 | 9% | -8% | 0% | – | – | – | –
3 | CC(C)(C)NC[C@H](O)COc1ccccc1C1CCCC1 [Penbutolol] | 1% | Q4 | 17% | -8% | 0% | – | – | – | –
4 | CC(C)(S)[C@@H](N)C(=O)O [Penicillamine] | 0% | Q4 | 16% | -15% | 0% | – | – | – | –
5 | N=C(N)c1ccc(OCCCCCOc2ccc(C(=N)N)cc2)cc1 [Pentamidine] | 1% | – | – | – | 1% | Q4 | 33% | 6% | –
6 | CC(=O)CCCCn1c(=O)c2c(ncn2C)n(C)c1=O [Pentoxifylline] | 0% | Q4 | 6% | 4% | 0% | – | – | – | –
7 | NNCCc1ccccc1 [Phenelzine] | 1% | – | – | – | 0% | Q4 | -4% | 2% | –
8 | CN(C)CCC(c1ccccc1)c1ccccn1 (stereo not shown) [Pheniramine] | 1% | Q4 | 1% | -9% | 0% | – | – | – | –
9 | CC(C)=CC1C(C(=O)OCc2cccc(Oc3ccccc3)c2)C1(C)C (stereo not shown) [Phenothrin] | 0% | Q4 | 11% | -50% | 0% | – | – | – | –
10 | CC(COc1ccccc1)N(CCCl)Cc1ccccc1 (stereo not shown) [Phenoxybenzamine] | 1% | Q4 | -5% | 8% | 0% | – | – | – | –
11 | CCCCC1C(=O)N(c2ccccc2)N(c2ccccc2)C1=O [Phenylbutazone] | 0% | Q4 | 5% | -23% | 0% | – | – | – | –
12 | CNC[C@H](O)c1cccc(O)c1 [Phenylephrine] | 1% | – | – | – | 0% | Q4 | 31% | 38% | –
13 | CC1=C(C/C=C(\C)CCC[C@H](C)CCC[C@H](C)CCCC(C)C)C(=O)c2ccccc2C1=O [Phylloquinone] | – | Q4 | – | – | – | – | – | – | Fibrin % cell toxicity (primary rat microglia [1]): 0%; LPS % inhibition [3]: 31%; Fibrin % inhibition [4, 8]: 4%; LPS % cell toxicity (primary rat microglia [5]): 2%
14 | CNC(=O)Oc1ccc2c(c1)[C@]1(C)CCN(C)[C@@H]1N2C [Physostigmine] | 0% | Q4 | 18% | -73% | 0% | – | – | – | –
15 | CCn1cc(C(=O)O)c(=O)c2cnc(N3CCNCC3)nc21 [Pipemidic Acid] | 1% | Q4 | 12% | -27% | 0% | – | – | – | –
16 | C1CNCCN1 [Piperazine] | 0% | – | – | – | 0% | Q4 | 16% | -3% | –
17 | CCCCOCCOCCOCc1cc2c(cc1CCC)OCO2 [Piperonyl Butoxide] | 0% | – | – | – | 0% | Q4 | 12% | 0% | –
18 | CN1CCN(CC(=O)N2c3ccccc3C(=O)Nc3cccnc32)CC1 [Pirenzepine] | 0% | – | – | – | 0% | Q4 | 19% | 16% | –
19 | O=C([O-])C[C@H](O)C[C@H](O)/C=C/c1c(C2CC2)nc2ccccc2c1-c1ccc(F)cc1.O=C([O-])C[C@H](O)C[C@H](O)/C=C/c1c(C2CC2)nc2ccccc2c1-c1ccc(F)cc1.[Ca+2] [Pitavastatin calcium, reference compound] | – | – | – | – | – | Q2 | – | – | Fibrin % cell toxicity (primary rat microglia [1]): 1%; IC50 (primary rat microglia [1]): > 20 µM; Cherry-picked Hit (Suppl. Table 7) [2]: HIT (key: HIT: Hits were defined as molecules that exhibited greater than 50% inhibition of either fibrin or LPS activation); Hit [2]: HIT (key: HIT: Hits were defined as molecules that exhibited greater than 50% inhibition of either fibrin or LPS activation); LPS % inhibition [3]: 66%; IC50 ([3]; read-out: LPS IC50): 5 µM; IC50 ([3]; read-out: LPS IC50 (uM) (Suppl. Table 7)): 5 µM; Fibrin % inhibition [4]: 100%; Fibrin Selectivity [4]: 4; Fibrin Selectivity (LOG10) [4]: 0.61; IC50 ([4]; read-out: Fibrin IC50): 1 µM; IC50 ([4]; read-out: Fibrin IC50 (uM) (Suppl. Table 7)): 1 µM; IC50 (primary rat microglia [5]): > 20 µM; LPS % cell toxicity (primary rat microglia [5]): 1%
20 | COc1cc([C@@H]2c3cc4c(cc3[C@H](O)[C@H]3COC(=O)[C@H]23)OCO4)cc(OC)c1OC [Podofilox/Podophyllotoxin] | – | – | – | – | – | – | – | – | Fibrin % cell toxicity (primary rat microglia [1]): 8%; Quadrant (FIG. 5b) ([2]; quadrant by fibrin and LPS inhibition in HTS of 1907 compounds): Q2; LPS % inhibition ([3]; primary microglia HTS, LPS stimulation; increased cell size (>800 μm^2) as marker of activation): 107%; Fibrin % inhibition ([4]; primary microglia HTS, fibrin stimulation, increased cell size (>800 μm^2) as marker of activation): 110%; LPS % cell toxicity (primary rat microglia [5]): 9%
21 | CC(=O)O[C@H]1CC[C@@]2(C)C(=CC[C@@H]3[C@@H]2CC[C@]2(C)C(=O)CC[C@@H]32)C1 [Praesterone Acetate, Prasterone Acetate] | – | Q4 | – | – | – | – | – | – | Fibrin % cell toxicity (primary rat microglia [1]): 1%; LPS % inhibition [3]: 5%; Fibrin % inhibition [4, 8]: −3%; LPS % cell toxicity (primary rat microglia [5]): 0%
22 | C[n+]1ccccc1/C=N/O [Pralidoxime] | 1% | – | – | – | 0% | Q4 | 17% | -12% | –
23 | CCCN[C@H]1CCc2nc(N)sc2C1 [Pramipexole] | 1% | – | – | – | 0% | Q4 | 1% | -19% | –
24 | O=C(C1CCCCC1)N1CC(=O)N2CCc3ccccc3C2C1 (stereo not shown) [Praziquantel] | 1% | Q4 | 21% | -3% | 0% | – | – | – | –
25 | CC(=O)[C@H]1CC[C@H]2[C@@H]3CC=C4C[C@@H](OC(=O)CCC(=O)O)CC[C@]4(C)[C@H]3CC[C@]12C [Pregnenolone Succinate] | 1% | Q4 | 21% | 4% | 1% | – | – | – | –
26 | COc1cc(NC(C)CCCN)c2ncccc2c1 (stereo not shown) [Primaquine] | 0% | – | – | – | 0% | Q4 | 7% | -58% | –
27 | CCCN(CCC)S(=O)(=O)c1ccc(C(=O)O)cc1 [Probenecid] | 1% | Q4 | 13% | 14% | 0% | – | – | – | –
